Measurements from US8252832B2, “Kinesin inhibitors as cancer therapeutics” (Novartis AG, priority 2007, dated 2012).
Read-outs that look alike come from different tables or passages of the source.

What was measured:
Assay type in all cases: cell-based
HOP-92 = assay: CellTiter-Glo, NCI60 panel; conditions: NSCL; for GI50: Homo sapiens
Source text: (§1) Identification of tumor types that are the most sensitive to the KSP inhibitors of the present invention can be accomplished using an unbiased approach that uses several cell-based assays. The assays chosen were as follows: • CellTiter-Glo®. This is an assay designed to measure ATP concentration in a cell culture, and can be correlated to cell number. Briefly CellTiter-Glo® (Promega Corporation) is a homogeneous method using the single CellTiter-Glo® reagent to detect ATP wherein ATP in the assay drives the activity of a thermostable luciferase to create a luminescent signal which can then be measured and correlated with the number of viable cells. Briefly, for adherent cells, 1,000 to 5,000 cells/well were plated in 96-well plates (100 μl/well) and let to adhere for 24 hours before being treated with drug. For non-adherent cells, 1,000 to 10,000 cells/well were plated in 96-well plates (100 μl/well) and immediately treated with drug. Drug dilutions were prepared in DMSO at 1000 times the final concentration. These dilutions were then diluted 1/100 in growth media before being added to the cells (11 μl/well) to achieve the desired final concentration. After 48 h in a 37° C. tissue culture incubator, the plates were processed for the CellTiter-Glo®assay according to the manufacturer's instructions. Protocol for a 72 hour cell proliferation assay: The 72 hour assay was performed the same way as the 48 hour assay except for the following modifications: For adherent cells, 500 to 5,000 cells/well were plated in 96-well plates (90 μl/well cell growth media) and left to adhere for 24 hours before being treated with drug. For non-adherent cells, 1,000 to 10,000 cells/well were plated in 96-well plates (90 μl/well cell growth media) and immediately treated with drug. Data values presented represent the concentration of test compound required for a 50% reduction in growth. • LDH release. The Cytotoxicity Detection KitPLUS (LDH) assay (Roche Diagnostics, Manheim, Germany) measures the amount of LDH released in the media by dying cells; LDH catalyzes the conversion of lactate into pyruvate. The enzymatic reaction is coupled to a chemical reaction that uses a tetrazolium salt to form a formazan that is red and can be detected by its absorbance at 490 nm. This assay measures the amount of cell death after drug treatment. Cells were plated at 10,000 cells/well in 96-well plates (100 μl/well). Adherent cells were let to adhere for 24 hours before being treated with drug, whereas non-adherent cells were immediately treated with drug. Drug dilutions were prepared in DMSO at 1000 times the final concentration. These dilutions were then diluted 1/100 in growth media before being added to the cells (11 μl/well) to achieve the desired final concentration. After 48 h in a 37° C. tissue culture incubator, the plates were processed for the Cytotoxicity Detection KitPLUS (LDH) assay according to the manufacturer's instructions. The media only values were subtracted from all the data points before analysis. Data values presented correspond to the compound concentration wherein LDH output is at half maximal level. • Caspase-Glo® 3/7. The Caspase-Glo® 3/7 Assay (Promega Corporation) is a homogeneous luminescent assay that measures caspase-3/7 activities. The assay provides a proluminescent caspase-3/7 DEVD-aminoluciferin substrate and a thermostable luciferase in a reagent optimized for caspase-3/7 activity, luciferase activity and cell lysis. Adding the single Caspase-Glo® 3/7 Reagent results in cell lysis, followed by caspase cleavage of the substrate. This liberates free aminoluciferin, which is consumed by the luciferase, generating a luminescent signal. The signal is proportional to caspase-3/7 activity. Data values presented correspond to the compound concentration wherein caspase 3/7 activity is at half maximal level. […]

A549 = assay: CellTiter-Glo, NCI60 panel; conditions: NSCL; for GI50: Homo sapiens
Source text: as §1

CCRF-CEM = assay: CellTiter-Glo, NCI60 panel; conditions: Leukemia; for GI50: Homo sapiens
Source text: as §1

IGROV1 = assay: CellTiter-Glo, NCI60 panel; conditions: for GI50: Homo sapiens, IGROV-1, Ovarian
Source text: as §1

MALME-3M = assay: CellTiter-Glo, NCI60 panel; conditions: Melanoma; for GI50: Homo sapiens
Source text: as §1

RPMI-8226 = assay: CellTiter-Glo, NCI60 panel; conditions: Leukemia; for GI50: Homo sapiens
Source text: as §1

RXF 393 = assay: CellTiter-Glo, NCI60 panel; conditions: Renal; for GI50: Homo sapiens
Source text: as §1

[1] = tested on: panel of cell lines derived from solid tumors; assay: Solid tumor cell line panel, fraction of surviving cells after 72 hours
Protocol: Compound IIa was tested against a panel of cell lines derived from solid tumors as described in See also McDermott, U., Sharma, S. V., Dowell, L., Greninger, P., Montagut, C., Lamb, J., Archibald, H., Raudales, R., Tam, A., Lee, D., Rothenberg, S. M., Supko, J. G., Sordella, R., Ulkus, L. E., Iafrate, A. J., Maheswaran, S., Njauw, C. N., Tsao, H., Drew, L., Hanke, J. H., Ma, X. J., Erlander, M. G., Gray, N. S., Haber, D. A., and Settleman, J. (2007), Identification of genotype-correlated sensitivity to selective kinase inhibitors by using high-throughput tumor cell line profiling. Proc. Natl. Acad. Sci. U.S. A 104, 19936-19941 (2007).) Cells were treated with the compound for 72 hours and the fraction of surviving cells, as compared to an untreated control, was reported. Table 17 lists the name of the cell line, the organ of origin, the fraction of surviving cells at the three concentrations tested (0.2 nM, 2.0 nM and 20 nM) and a sensitivity score. The sensitivity score was from 5 (most sensitive) to 1 (least sensitive) and the scoring was as follows: 5=surviving fraction≦0.2 at 0.2 nM; 4=0.2<surviving fraction≦0.5 at 0.2 nM; 3=surviving fraction>0.5 at 0.2 nM and ≦0.5 at 2.0 nM; 2=surviving fraction>0.5 at 2.0 nM and ≦0.5 at 20 nM; 1=surviving fraction>0.5 at 20 nM.

[2] = GI50 in nM, read-out: Log(GI50) (converted)

## CC(C)(C)[C@H](c1nc(-c2cc(F)ccc2F)cn1Cc1ccccc1)N(CC[C@H](N)CF)C(=O)CO [Compound IIa]
HOP-92; [2]
  GI50: 10 nM
HOP-92; read-out: GI50
  GI50: 10 nM
HOP-92
  Differential vs mean Log(GI50): −0.669
A549; [2]
  GI50: 10 nM
A549; read-out: GI50
  GI50: 10 nM
A549
  Differential vs mean Log(GI50): −0.669
CCRF-CEM; [2]
  GI50: 0.215 nM
CCRF-CEM; read-out: GI50
  GI50: 0.215 nM
CCRF-CEM
  Differential vs mean Log(GI50): 0.999
IGROV1; [2]
  GI50: 10 nM
IGROV1; read-out: GI50
  GI50: 10 nM
IGROV1; Ovarian
  Differential vs mean Log(GI50): −0.669
MALME-3M; [2]
  GI50: 10 nM
MALME-3M; read-out: GI50
  GI50: 10 nM
MALME-3M
  Differential vs mean Log(GI50): −0.669
RPMI-8226; [2]
  GI50: 0.351 nM
RPMI-8226; read-out: GI50
  GI50: 0.351 nM
RPMI-8226
  Differential vs mean Log(GI50): 0.786
RXF 393; [2]
  GI50: 10 nM
RXF 393; read-out: GI50
  GI50: 10 nM
RXF 393
  Differential vs mean Log(GI50): −0.669
[1]; brain
  average sensitivity score: 3.21
[1]; cervix
  average sensitivity score: 3.00
[1]; ovary
  average sensitivity score: 3.38
[1]; skin
  average sensitivity score: 3.02
[1]; stomach
  average sensitivity score: 3.32
[1]; thyroid
  average sensitivity score: 3.00
